The source made the active and inactive calls. No rule for the calls is given here.
Biological target: Nuclear receptor coactivator 2 (Homo sapiens) (UniProt Q15596)
Test: NCOA2-driven reporter transcription inhibition – cell-based, luciferase reporter, luminescence, selectivity assay for SRC1 inhibitor project, late-stage follow-up (AID 651799)
Conditions: cell-based SRC2 luciferase reporter

Sequence of Nuclear receptor coactivator 2 (Homo sapiens) (Q15596 whole entry, looked up): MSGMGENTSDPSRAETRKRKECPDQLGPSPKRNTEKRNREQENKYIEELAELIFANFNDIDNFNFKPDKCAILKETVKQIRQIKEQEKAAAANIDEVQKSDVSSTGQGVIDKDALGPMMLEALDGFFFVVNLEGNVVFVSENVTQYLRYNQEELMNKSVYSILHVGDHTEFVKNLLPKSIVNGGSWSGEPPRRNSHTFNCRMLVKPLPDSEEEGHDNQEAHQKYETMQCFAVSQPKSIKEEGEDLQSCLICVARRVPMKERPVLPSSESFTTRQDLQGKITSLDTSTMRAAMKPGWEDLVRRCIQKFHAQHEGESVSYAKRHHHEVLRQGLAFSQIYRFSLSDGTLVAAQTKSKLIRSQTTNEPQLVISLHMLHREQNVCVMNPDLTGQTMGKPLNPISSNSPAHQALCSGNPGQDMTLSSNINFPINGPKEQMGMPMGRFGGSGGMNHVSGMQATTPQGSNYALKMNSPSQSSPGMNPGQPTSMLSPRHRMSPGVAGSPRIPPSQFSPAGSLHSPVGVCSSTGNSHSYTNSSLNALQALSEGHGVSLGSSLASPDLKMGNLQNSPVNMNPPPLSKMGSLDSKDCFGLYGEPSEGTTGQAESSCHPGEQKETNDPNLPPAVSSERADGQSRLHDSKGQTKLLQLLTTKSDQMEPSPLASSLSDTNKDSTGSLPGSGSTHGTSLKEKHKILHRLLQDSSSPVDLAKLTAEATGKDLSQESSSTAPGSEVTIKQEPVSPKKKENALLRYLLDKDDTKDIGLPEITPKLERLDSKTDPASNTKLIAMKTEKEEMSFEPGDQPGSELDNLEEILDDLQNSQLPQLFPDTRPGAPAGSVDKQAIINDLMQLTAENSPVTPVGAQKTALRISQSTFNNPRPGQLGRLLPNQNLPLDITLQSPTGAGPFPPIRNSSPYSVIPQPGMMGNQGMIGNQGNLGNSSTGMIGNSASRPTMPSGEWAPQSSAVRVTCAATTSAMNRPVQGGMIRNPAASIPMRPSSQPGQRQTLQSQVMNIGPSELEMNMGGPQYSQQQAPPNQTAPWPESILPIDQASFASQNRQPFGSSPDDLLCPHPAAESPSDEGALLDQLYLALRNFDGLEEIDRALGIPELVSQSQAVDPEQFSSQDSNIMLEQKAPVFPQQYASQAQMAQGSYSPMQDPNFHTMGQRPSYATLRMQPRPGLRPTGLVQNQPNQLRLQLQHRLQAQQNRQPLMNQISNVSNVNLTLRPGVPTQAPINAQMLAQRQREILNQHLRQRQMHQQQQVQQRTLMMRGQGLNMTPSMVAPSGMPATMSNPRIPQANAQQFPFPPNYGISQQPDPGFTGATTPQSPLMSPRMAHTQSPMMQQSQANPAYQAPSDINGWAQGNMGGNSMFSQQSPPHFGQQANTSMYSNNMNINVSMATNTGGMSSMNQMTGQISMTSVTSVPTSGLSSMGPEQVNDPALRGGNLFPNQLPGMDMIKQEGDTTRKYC

Row | Structure (SMILES) | IC50
1 | COc1ccc(NC(=O)CN(C)C(=O)C2(c3ccccc3)CCCC2)cc1 | inactive
2 | COc1ccc(Nc2ncnc3ccc(Br)cc23)c(OC)c1 | inactive

Source: PubChem BioAssay AID651799 (The Scripps Research Institute Molecular Screening Center, 2012)
